In test [1] the target is T1, human recombinant HDAC1 (Homo sapiens, UniProt Q13547).
T1 construct: purchased BPS Bioscience 50051
Put plainly: ZMAL trypsin assay, HDAC1. It counts as biochemical. Conditions: for inhibition at 10 µM: ZMAL trypsin assay. The method, then: (§1) [28] Assays for HDAC1/6 were prepared according to: B. Heltweg , J. Trapp , M. Jung , Methods 2005, 36, 332–337; assays for HDAC8 were prepared according to: J. Senger , J. Melesina , M. Marek , C. Romier , I. Oehme , O. Witt , W. Sippl , M. Jung , J. Med. Chem. 2016, 59, 1545–1555. […]
(§2) hHDAC1/6: Activity assays were performed in OptiPlateTM-96 F black microplates (PerkinElmer). Commercial available enzymes (human recombinant HDAC1; BPS Bioscience, catalog no. 50051 and human recombinant HDAC6; BPS Bioscience, catalog no. 50006) were used. Total assay volume of 60 µL contains 42 µl of assay buffer (50 mM Tris -HCl, pH 8.0, 137 mM NaCl, 2.7 mM KCl, 1 mM MgCl2, 0.2 mM TCEP and 1 mg/mL bovine serum albumin), 10 µL of enzyme solution in assay buffer, 3 µL of increasing concentrations of inhibitors in DMSO and 5 μL of the fluorogenic substrate ZMAL (Z -(Ac)Lys-AMC) (126 μM). After incubation (90 min, 37 °C) 60 µL of stop solution, containing 5 μL Trichostatin A (TSA) (33 μM) and 10 μL trypsin (6 mg/mL) in trypsin buffer (Tris-HCl 50 mM, pH 8.0, NaCl 100 mM), were added. […]

Test [2] has as its target T2, human recombinant HDAC6 (Homo sapiens, UniProt Q9UBN7).
T2 construct: purchased BPS Bioscience 50006
T2 sequence (Q9UBN7 1-1215): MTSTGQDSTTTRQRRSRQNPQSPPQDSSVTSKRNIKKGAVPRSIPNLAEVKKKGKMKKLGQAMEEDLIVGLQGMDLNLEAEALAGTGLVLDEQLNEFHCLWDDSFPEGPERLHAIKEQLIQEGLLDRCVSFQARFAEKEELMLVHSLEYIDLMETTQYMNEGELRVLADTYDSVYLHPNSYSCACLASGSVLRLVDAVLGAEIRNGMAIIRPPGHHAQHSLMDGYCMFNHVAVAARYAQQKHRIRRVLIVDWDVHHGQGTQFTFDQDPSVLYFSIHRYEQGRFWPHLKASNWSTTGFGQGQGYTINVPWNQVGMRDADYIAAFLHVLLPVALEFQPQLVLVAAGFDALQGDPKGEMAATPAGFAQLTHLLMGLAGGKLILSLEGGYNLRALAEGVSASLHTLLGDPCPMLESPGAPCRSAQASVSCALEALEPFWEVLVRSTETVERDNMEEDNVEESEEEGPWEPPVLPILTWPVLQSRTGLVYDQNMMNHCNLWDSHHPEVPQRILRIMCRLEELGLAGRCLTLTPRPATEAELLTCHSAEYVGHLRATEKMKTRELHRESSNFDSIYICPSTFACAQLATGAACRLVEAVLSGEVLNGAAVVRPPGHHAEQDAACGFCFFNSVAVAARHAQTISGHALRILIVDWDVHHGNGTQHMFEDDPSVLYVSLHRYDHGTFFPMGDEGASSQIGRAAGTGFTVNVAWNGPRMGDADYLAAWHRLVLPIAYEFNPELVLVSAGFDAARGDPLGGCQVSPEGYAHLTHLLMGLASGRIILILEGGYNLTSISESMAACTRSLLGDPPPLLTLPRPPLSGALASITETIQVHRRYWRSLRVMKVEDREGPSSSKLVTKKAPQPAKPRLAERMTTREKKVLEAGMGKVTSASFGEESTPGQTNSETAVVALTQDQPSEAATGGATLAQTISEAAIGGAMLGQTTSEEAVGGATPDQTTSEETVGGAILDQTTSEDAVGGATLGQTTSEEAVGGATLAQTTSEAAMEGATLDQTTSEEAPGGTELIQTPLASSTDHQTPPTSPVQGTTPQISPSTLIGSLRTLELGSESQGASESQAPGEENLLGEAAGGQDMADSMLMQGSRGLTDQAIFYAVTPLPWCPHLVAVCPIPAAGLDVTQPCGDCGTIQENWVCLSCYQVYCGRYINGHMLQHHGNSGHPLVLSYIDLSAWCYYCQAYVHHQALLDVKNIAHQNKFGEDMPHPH
Nature of the test: ZMAL trypsin assay, HDAC6. The format is biochemical. The note with it: for inhibition at 10 µM: ZMAL trypsin assay. On the procedure: as §1, §2

T1 sequence (Q13547 whole entry): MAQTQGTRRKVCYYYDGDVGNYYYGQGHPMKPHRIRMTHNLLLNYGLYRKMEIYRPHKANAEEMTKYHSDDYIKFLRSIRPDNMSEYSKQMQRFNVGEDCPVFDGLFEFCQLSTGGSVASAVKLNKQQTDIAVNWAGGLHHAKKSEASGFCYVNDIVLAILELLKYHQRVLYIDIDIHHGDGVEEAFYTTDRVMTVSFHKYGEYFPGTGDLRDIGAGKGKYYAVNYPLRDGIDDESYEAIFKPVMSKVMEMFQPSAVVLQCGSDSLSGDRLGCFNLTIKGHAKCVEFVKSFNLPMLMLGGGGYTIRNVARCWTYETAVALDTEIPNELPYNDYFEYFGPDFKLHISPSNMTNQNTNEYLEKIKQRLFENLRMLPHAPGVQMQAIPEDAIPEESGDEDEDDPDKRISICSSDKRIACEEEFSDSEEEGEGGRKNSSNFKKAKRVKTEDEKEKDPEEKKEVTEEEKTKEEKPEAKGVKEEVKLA

By inhibition is commonly meant the change of the read-out against control, counted positive when it falls. On to `C=C[C@@H]1CC(=O)N[C@H](CCCC)C(=O)N[C@H](C)C(=O)N[C@H]([C@@H](C)CC)[C@@H](O)CC(=O)O1` [compound 28], for which, in test [1], the “HDAC1 inhibition (in words)” value is “did not show inhibition” and the inhibition at 10 µM is below 5%. In test [2], the “HDAC6 inhibition (in words)” value is “did not show inhibition” and the inhibition at 10 µM is below 5%.
As to `C=C[C@@H]1CC(=O)N[C@H](CCCC)C(=O)N[C@H](C)C(=O)N[C@H]([C@@H](C)CC)[C@@H](O[Si](C)(C)C(C)(C)C)CC(=O)O1` [compound 9], in test [1], the “HDAC1 inhibition (in words)” value is given as “did not show inhibition” and the inhibition at 10 µM was below 5%. Also, in test [2], the “HDAC6 inhibition (in words)” value is “did not show inhibition” and the inhibition at 10 µM was below 5%.
For `CCCC[C@H]1NC(=O)C[C@@H](/C=C/CCC(=O)N(OC(=O)OC(C)(C)C)C(=O)OC(C)(C)C)OC(=O)C[C@H](O[Si](C)(C)C(C)(C)C)[C@@H]([C@@H](C)CC)NC(=O)[C@@H](C)NC1=O` [compound 35], in test [1], the “HDAC1 inhibition (in words)” value is “not active” and the inhibition at 10 µM was below 5%. Also, in test [2], the “HDAC6 inhibition (in words)” value was “not active” and the inhibition at 10 µM was below 5%.

For the origin of these results see paper PMC7756392, “Syntheses of Thailandepsin B Pseudo‐Natural Products: Access to New Highly Potent HDAC Inhibitors via Late‐Stage Modification” (Chemistry (Weinheim an Der Bergstrasse, Germany), 2020).
